The test system of assay [1] is Mus musculus. In words: In vivo anticancer activity against murine M 109 lung carcinoma after intraperitoneal administration at a 50 mg/kg/inj concentration. It is filed as functional.
The nature of assay [2]: Ratio fo the (IC50-R) compound relative to (IC50-S) paclitaxel sensitive HCT116 human colon cancer cell line. Type of assay: functional, HCT-116.
The nature of assay [3]: Ratio relative to paclitaxel (EC0.01) was evaluated in a tubulin polymerization assay. It is filed as functional.
Assay [4] can be described thus: Cytotoxicity ratio was determined by IC50 to that of IC50 of paclitaxel. It is filed as functional.
Another assay concerns HCT-116. In words: In vitro cytotoxicity against human colon cancer cell lines (HCT116). It is filed as functional, cell-based.
Assay [5] has as its system Mus musculus. Briefly: In vivo anticancer activity against murine M 109 lung carcinoma after intraperitoneal administration at a 60 mg/kg/inj concentration; Range 145-218. Type of assay: functional.
The subject of assay [6] is Mus musculus. In words: In vivo anticancer activity against murine M 109 lung carcinoma after intraperitoneal administration at a 1.25 mg/kg/inj concentration. It is filed as functional.
The test system of assay [7] is Mus musculus. Briefly: In vivo anticancer activity against murine M 109 lung carcinoma after intraperitoneal administration at a 32 mg/kg/inj concentration. Type of assay: functional.
Assay [8] concerns Mus musculus. In words: In vivo anticancer activity against murine M 109 lung carcinoma after intraperitoneal administration at a 40 mg/kg/inj concentration. Type of assay: functional.

Broadly, the IC50 is the concentration needed to halve the response being measured. On to `CC(=O)O[C@H]1C(=O)[C@]2(C)[C@@H](O)CC3OC[C@@]3(OC(C)=O)[C@H]2[C@H](OC(=O)c2ccccc2)C2(O)C[C@H](OC(=O)[C@H](O)[C@@H](NC(=O)SCC(C)C)c3ccco3)C(C)=C1C2(C)C` (stereo partly specified), for which, in the assay with Mus musculus [1], the T/C was found to be 145. Besides, the results for the Ratio in assay [2], in [3] and in [4] were 7.7, 0.2 and 0.28, respectively. The compound also had an IC50 with HCT-116 of 0.7 nM.

Consider `CC(=O)O[C@H]1C(=O)[C@]2(C)[C@@H](O)CC3OC[C@@]3(OC(C)=O)[C@H]2[C@H](OC(=O)c2ccccc2)C2(O)C[C@H](OC(=O)[C@H](O)[C@@H](NC(=O)SC(C)(C)C)c3ccccc3)C(C)=C1C2(C)C` (stereo partly specified), for which the Ratio is 4.7 in assay [2], 0.3 in [3] and 0.3 in assay [4]. In addition, the IC50 in the assay with HCT-116 stood at 0.9 nM.

On to `CC(=O)O[C@H]1C(=O)[C@]2(C)[C@@H](O)CC3OC[C@@]3(OC(C)=O)[C@H]2[C@H](OC(=O)c2ccccc2)C2(O)C[C@H](OC(=O)[C@H](O)[C@@H](/N=C(\S)NC(C)(C)C)c3ccco3)C(C)=C1C2(C)C` (stereo partly specified), for which the Ratio in assay [2] is 40; in assay [3] it was 1; in assay [4] it was 4.9. For the same compound, the IC50 in the assay on HCT-116 was found to be 11.3 nM.

On to `CC(=O)O[C@H]1C(=O)[C@@]2(C)[C@H]([C@H](OC(=O)c3ccccc3)[C@]3(O)C[C@H](OC(=O)[C@H](O)[C@@H](NC(=O)c4ccccc4)c4ccccc4)C(C)=C1C3(C)C)[C@]1(OC(C)=O)CO[C@@H]1C[C@@H]2O` [PACLITAXEL], for which the T/C in the assay with Mus musculus [5] is given as 145.

In the assay with Mus musculus [6], `CC(=O)O[C@H]1C(=O)[C@]2(C)[C@@H](O)CC3OC[C@@]3(OC(C)=O)[C@H]2[C@H](OC(=O)c2ccccc2)C2(O)C[C@H](OC(=O)[C@H](O)[C@@H](NC(=O)SC(C)(C)C)c3ccco3)C(C)=C1C2(C)C` (stereo partly specified) gave a T/C of 134. Besides, the figures for the Ratio in assay [2], in [3] and in assay [4] were 2.2, 0.1 and 0.3, respectively. Besides, the IC50 in the assay on HCT-116 was determined as 0.9 nM.

With `CC(=O)O[C@H]1C(=O)[C@]2(C)[C@@H](O)CC3OC[C@@]3(OC(C)=O)[C@H]2[C@H](OC(=O)c2ccccc2)C2(O)C[C@H](OC(=O)[C@H](O)[C@@H](NC(=O)OC(C)(C)C)c3ccccc3)C(C)=C1C2(C)C` (stereo partly specified), the T/C in the assay with Mus musculus [7] is reported as 177. Besides, the Ratio in assay [2] came to 12; in [3], 0.66; in assay [4] it was 0.6. This compound also returned an IC50 in the assay on HCT-116 of 2.4 nM.

Take `CCCC/N=C(\S)N[C@@H](c1ccccc1)[C@@H](O)C(=O)O[C@H]1CC2(O)[C@@H](OC(=O)c3ccccc3)[C@H]3[C@](C)(C(=O)[C@H](OC(C)=O)C(=C1C)C2(C)C)[C@@H](O)CC1OC[C@]13OC(C)=O` (stereo partly specified): the Ratio was 64 in assay [2], 18 in assay [3] and 21.8 in assay [4]. Further, in the assay on HCT-116, 50.2 nM corresponded to half-maximal inhibition (IC50).

As to `CCCCSC(=O)N[C@@H](c1ccco1)[C@@H](O)C(=O)O[C@H]1CC2(O)[C@@H](OC(=O)c3ccccc3)[C@H]3[C@](C)(C(=O)[C@H](OC(C)=O)C(=C1C)C2(C)C)[C@@H](O)CC1OC[C@]13OC(C)=O` (stereo partly specified), the T/C with Mus musculus [8] was determined as 139. Also, the Ratio in assay [2] turned out to be 21.3; in assay [3], 0.2; in [4], 0.17. Also, the IC50 in the assay on HCT-116 was 0.3 nM.

On to `CC(=O)O[C@H]1C(=O)[C@]2(C)[C@@H](O)CC3OC[C@@]3(OC(C)=O)[C@H]2[C@H](OC(=O)c2ccccc2)C2(O)C[C@H](OC(=O)[C@H](O)[C@@H](/N=C(\S)NC(C)(C)C)c3ccccc3)C(C)=C1C2(C)C` (stereo partly specified), for which the figures for the Ratio in [2], in [3] and in assay [4] were 31, 19 and roughly 50, respectively. Also, in the assay on HCT-116, the IC50 is 96.7 nM.

For the compound `CC(=O)O[C@H]1C(=O)[C@]2(C)[C@@H](O)CC3OC[C@@]3(OC(C)=O)[C@H]2[C@H](OC(=O)c2ccccc2)C2(O)C[C@H](OC(=O)[C@H](O)[C@@H](NC(=O)SC(C)C)c3ccco3)C(C)=C1C2(C)C` (stereo partly specified), the results for the Ratio in [2], in [3] and in [4] were 1.2, 0.2 and 14.7, respectively. Moreover, in the assay with HCT-116, the IC50 was 32.5 nM.

With `CC(=O)O[C@H]1C(=O)[C@]2(C)[C@@H](O)CC3OC[C@@]3(OC(C)=O)[C@H]2[C@H](OC(=O)c2ccccc2)C2(O)C[C@H](OC(=O)[C@H](O)[C@@H](/N=C(\S)NCc3ccccc3)c3ccccc3)C(C)=C1C2(C)C` (stereo partly specified), the figures for the Ratio in assay [3] and in assay [4] were 12 and greater than 40, respectively. In the assay with HCT-116, this compound registered an IC50 greater than 87 nM.

In the case of `CC(=O)O[C@@]12COC1C[C@H](O)[C@@]1(C)C(=O)[C@H](O)C3=C(C)[C@@H](OC(=O)C(O)[C@@H](NC(=O)NC(C)(C)C)c4ccccc4)CC(O)([C@@H](OC(=O)c4ccccc4)[C@@H]12)C3(C)C` (stereo partly specified), the results for the Ratio in [2], in [3] and in assay [4] were 46.8, 0.72 and 1, respectively. The same compound returned an IC50 in the assay on HCT-116 of 4 nM.

In the case of `CCCCSC(=O)N[C@@H](c1ccccc1)[C@@H](O)C(=O)O[C@H]1CC2(O)[C@@H](OC(=O)c3ccccc3)[C@H]3[C@](C)(C(=O)[C@H](OC(C)=O)C(=C1C)C2(C)C)[C@@H](O)CC1OC[C@]13OC(C)=O` (stereo partly specified), the Ratio in assay [2] was found to be 29; in [3], 0.6; in [4] it was 0.88. In addition, the IC50 in the assay on HCT-116 was 5.8 nM.

For the compound `CCCC/N=C(\S)N[C@@H](c1ccco1)[C@@H](O)C(=O)O[C@H]1CC2(O)[C@@H](OC(=O)c3ccccc3)[C@H]3[C@](C)(C(=O)[C@H](OC(C)=O)C(=C1C)C2(C)C)[C@@H](O)CC1OC[C@]13OC(C)=O` (stereo partly specified), the Ratio in [2] was 252; in [3], 1; in assay [4], 4.6. The IC50 in the assay with HCT-116 was 10.5 nM.
